In patent publication US20110152094A1, “Herbicidal compositions comprising flufenacet” (Bayer CropScience AG, priority 2009, published 2011):

What was measured:
Assay type in all cases: in vivo
AVEFA = Avena fatua [1] = experiment: Greenhouse trial, PE application with different irrigation variations (test method 6); settings: g of AS/ha: (A) 120, (B) 1200, (A)+(B) 120 + 1200
Protocol: (§1) In the standard design of the test, seeds of various broad-leaved weed and weed grass biotypes (origins) were sown in a 8-13 cm diameter pot filled with natural soil of a standard field soil (loamy silt; non-sterile) and covered with a covering soil layer of about 1 cm. The pots were then cultivated in a greenhouse (12-16 h of light, temperature day 20-22° C., night 15-18° C.) until the time of application. The pots were treated on a laboratory track sprayer with spray liquors comprising the compositions according to the invention, mixtures of the prior art or components used individually. Application of the active compounds or active compound combinations formulated as WG, WP, EC or otherwise was carried out at the appropriate growth stages of the plants. The application rate for the spray application was 100-600 l of water/ha. After the treatment, the plants were returned to the greenhouses.
(§2) About 3 weeks after the application, the soil action or/and foliar action was assessed visually according to a scale of 0-100% in comparison to an untreated comparative group: 0%=no noticeable effect compared to the untreated comparative group; 100%=full effect compared to the untreated comparative group.
(§3) (notes: the term “seeds” also includes vegetative propagation forms such as, for example, rhizome pieces; abbreviations used: h light=hours of illumination, g of AS/ha=gram of active substance per hectare, l/ha=liter per hectare, S=sensitive, R=resistant) • 1. Pre-emergence action against weeds: seeds of various broad-leaved weed and weed grass biotypes (origins) were sown in a 8-13 cm diameter pot filled with natural soil of a standard field soil (loamy silt; non-sterile) and covered with a covering soil layer of about 1 cm. The pots were then cultivated in a greenhouse (12-16 h of light, temperature day 20-22° C., night 15-18° C.) until the time of application. The pots were treated at the BBCH stage 00-10 of the seeds/plants on a laboratory track sprayer with spray liquors comprising the compositions according to the invention, mixtures or components used individually, as WG, WP, EC or other formulations. The application rate for the spray application was 100-600 l of water/ha. After the treatment, the plants were returned to the greenhouses and, when required, treated with fertilizer and watered. • 2. Post-emergence action against weeds: seeds of various broad-leaved weed and weed grass biotypes (origins) were sown in a 8-13 cm diameter pot filled with natural soil of a standard field soil (loamy silt; non-sterile) and covered with a covering soil layer of about 1 cm. The pots were then cultivated in a greenhouse (12-16 h of light, temperature day 20-22° C., night 15-18° C.) until the time of application. The pots were treated at various BBCH stages between 11-25 of the seeds/plants, i.e. generally between two to three weeks after the start of the cultivation, on a laboratory track sprayer with spray liquors comprising the compositions according to the invention, mixtures or components used individually, as WG, WP, EC or other formulations. The application rate for the spray application was 100-600 l of water/ha. After the treatment, the plants were returned to the greenhouses and, when required, treated with fertilizer and watered. • 3. Selective pre-emergence action: seeds of various crop species (origins) were sown in a 8-13 cm diameter pot filled with natural soil of a standard field soil (loamy silt; non-sterile) and covered with a covering soil layer of about 1 cm. The pots were then cultivated in a greenhouse (12-16 h of light, temperature day 20-22° C., night 15-18° C.) until the time of application. The pots were treated at the BBCH stage 00-10 of the seeds/plants on a laboratory track sprayer with spray liquors comprising the compositions according to the invention, mixtures or components used individually, as WG, WP, EC or other formulations. The application rate for the spray application was 100-600 l of water/ha. […]

[2] = test system: MATCH = Matricaria chamomilla; experiment: as above; settings: g of AS/ha: (A) 120, (B) 1200, (A)+(B) 120 + 1200
Protocol: as §1, §2, §3

[3] = test system: TRZAW = Triticum aestivum, winter wheat; experiment: as above; settings: g of AS/ha: (A) 120, (B) 1200, (A)+(B) 120 + 1200
Protocol: as §1, §2, §3

[4] = test system: HORVW = Hordeum vulgare, winter barley; experiment: Greenhouse trial, PE application at different sowing depths (test method 9); settings: g of AS/ha: (A) 120, (B) 1200, (A)+(B) 120 + 1200
Protocol: as §1, §2, §3

LOLPE = Lolium perenne [5] = experiment: as above; settings: g of AS/ha: (A) 120, (B) 1200, (A)+(B) 120 + 1200
Protocol: as §1, §2, §3

STEME = Stellaria media [6] = experiment: as above; settings: g of AS/ha: (A) 120, (B) 1200, (A)+(B) 120 + 1200
Protocol: as §1, §2, §3

[7] = test system: TRZAW = Triticum aestivum, winter wheat; experiment: as above; settings: g of AS/ha: (A) 120, (B) 1200, (A)+(B) 120 + 1200
Protocol: as §1, §2, §3

AVEFA = Avena fatua [8] = experiment: Greenhouse trial, pre-emergence (PE) action against weeds (test method 1); settings: PE application; g of AS/ha: (A) 90, (B) 1200, (A)+(B) 90 + 1200
Protocol: as §1, §2
(§4) (notes: the term “seeds” also includes vegetative propagation forms such as, for example, rhizome pieces; abbreviations used: h light=hours of illumination, g of AS/ha=gram of active substance per hectare, l/ha=liter per hectare, S=sensitive, R=resistant) • 1. Pre-emergence action against weeds: seeds of various broad-leaved weed and weed grass biotypes (origins) were sown in a 8-13 cm diameter pot filled with natural soil of a standard field soil (loamy silt; non-sterile) and covered with a covering soil layer of about 1 cm. The pots were then cultivated in a greenhouse (12-16 h of light, temperature day 20-22° C., night 15-18° C.) until the time of application. The pots were treated at the BBCH stage 00-10 of the seeds/plants on a laboratory track sprayer with spray liquors comprising the compositions according to the invention, mixtures or components used individually, as WG, WP, EC or other formulations. The application rate for the spray application was 100-600 l of water/ha. After the treatment, the plants were returned to the greenhouses and, when required, treated with fertilizer and watered. • 2. Post-emergence action against weeds: seeds of various broad-leaved weed and weed grass biotypes (origins) were sown in a 8-13 cm diameter pot filled with natural soil of a standard field soil (loamy silt; non-sterile) and covered with a covering soil layer of about 1 cm. The pots were then cultivated in a greenhouse (12-16 h of light, temperature day 20-22° C., night 15-18° C.) until the time of application. […]

[9] = test system: MATCH = Matricaria chamomilla; experiment: as above; settings: PE application; g of AS/ha: (A) 90, (B) 1200, (A)+(B) 90 + 1200
Protocol: as §1, §2, §4

[10] = test system: TRZAS = Triticum aestivum, summer wheat; experiment: Greenhouse trial, activity with different soil types (test method 7); settings: g of AS/ha: (A) 120, (B) 1200, (A)+(B) 120 + 1200
Protocol: as §1, §2, §3

STEME = Stellaria media [11] = experiment: as above; settings: g of AS/ha: (A) 120, (B) 1200, (A)+(B) 120 + 1200
Protocol: as §1, §2, §3

LOLPE = Lolium perenne [12] = experiment: Greenhouse trial, post-emergence (PO) action against weeds (test method 2); settings: PO application; g of AS/ha: (A) 120, (B) 1200, (A)+(B) 120 + 1200; about 3 weeks after application
Protocol: as §1, §2, §3

STEME = Stellaria media [13] = experiment: as above; settings: PO application; g of AS/ha: (A) 120, (B) 1200, (A)+(B) 120 + 1200; about 3 weeks after application
Protocol: as §1, §2, §3

VIOAR = Viola arvensis = experiment: as above; settings: PO application; g of AS/ha: (A) 120, (B) 1200, (A)+(B) 120 + 1200; about 3 weeks after application
Protocol: as §1, §2, §3

[14] = test system: HORVW = Hordeum vulgare, winter barley; experiment: Greenhouse trial, selective pre-emergence (PE) action on crop plant (test method 3); settings: PE application, g of AS/ha: (A) 90, (B) 1200, (A)+(B) 90 + 1200
Protocol: as §1
About 3 weeks after the application, the soil action or/and foliar action was assessed visually according to a scale of 0-100% in comparison to an untreated comparative group: 0%=no noticeable effect compared to the untreated comparative group; 100%=full effect compared to the untreated comparative group. […]

## CCC(CC)Nc1c([N+](=O)[O-])cc(C)c(C)c1[N+](=O)[O-] [(B) pendimethalin, N-(1-ethylpropyl)-3,4-dimethyl-2,6-dinitrobenzenamine]
AVEFA = Avena fatua [1]; irrigation from above
  activity AVEFA (visual assessment, scale 0-100% vs untreated): 5%
AVEFA = Avena fatua [1]; irrigation from below
  activity AVEFA (visual assessment, scale 0-100% vs untreated): 10%
[2]; irrigation from above
  activity MATCH (visual assessment, scale 0-100% vs untreated): 30%
[2]; irrigation from below
  activity MATCH (visual assessment, scale 0-100% vs untreated): 18%
[3]; irrigation from above
  activity on crop plant TRZAW (visual assessment, scale 0-100% vs untreated): 20%
[3]; irrigation from below
  activity on crop plant TRZAW (visual assessment, scale 0-100% vs untreated): 5%
[4]; sowing depth 5 mm
  activity on crop plant HORVW, sowing depth 5 mm (visual assessment, scale 0-100% vs untreated): 25%
[4]; sowing depth 20 mm
  activity on crop plant HORVW, sowing depth 20 mm (visual assessment, scale 0-100% vs untreated): 0%
LOLPE = Lolium perenne [5]; sowing depth 5 mm
  activity LOLPE, sowing depth 5 mm (visual assessment, scale 0-100% vs untreated): 30%
LOLPE = Lolium perenne [5]; sowing depth 20 mm
  activity LOLPE, sowing depth 20 mm (visual assessment, scale 0-100% vs untreated): 10%
STEME = Stellaria media [6]; sowing depth 5 mm
  activity STEME, sowing depth 5 mm (visual assessment, scale 0-100% vs untreated): 50%
STEME = Stellaria media [6]; sowing depth 20 mm
  activity STEME, sowing depth 20 mm (visual assessment, scale 0-100% vs untreated): 70%
[7]; sowing depth 5 mm
  activity on crop plant TRZAW, sowing depth 5 mm (visual assessment, scale 0-100% vs untreated): 45%
[7]; sowing depth 20 mm
  activity on crop plant TRZAW, sowing depth 20 mm (visual assessment, scale 0-100% vs untreated): 10%
AVEFA = Avena fatua [8]
  activity AVEFA (visual assessment, scale 0-100% vs untreated): 88%
[9]
  activity MATCH (visual assessment, scale 0-100% vs untreated): 18%
[10]; IU soil
  activity on crop plant TRZAS IU soil (visual assessment, scale 0-100% vs untreated): 5%
[10]; IU/EC73 soil versus IU soil, crop plant
  Difference of the soil types Δ^D, TRZAS: Δ^D −5%
[10]; IU/EC73 soil
  activity on crop plant TRZAS IU/EC73 soil (visual assessment, scale 0-100% vs untreated): 0%
STEME = Stellaria media [11]; IU soil (loamy silt, standard field soil)
  activity STEME IU soil (visual assessment, scale 0-100% vs untreated): 85%
STEME = Stellaria media [11]; IU/EC73 soil (heavier soil, higher organic substance)
  activity STEME IU/EC73 soil (visual assessment, scale 0-100% vs untreated): 55%
STEME = Stellaria media [11]; IU/EC73 soil versus IU soil
  Difference of the soil types Δ^D, STEME: Δ^D −30%
LOLPE = Lolium perenne [12]
  activity LOLPE (visual assessment, scale 0-100% vs untreated): 0%
STEME = Stellaria media [13]
  activity STEME (visual assessment, scale 0-100% vs untreated): 30%
VIOAR = Viola arvensis
  activity VIOAR (visual assessment, scale 0-100% vs untreated): 30%
[14]
  activity on crop plant HORVW (visual assessment, scale 0-100% vs untreated): 50%
